What was measured:
[1] = Protocol: Example 1: A first patient treatment example is that of an adult experiencing pain from multiple neck injuries and replaced vertebrae who was treating pain using 60 mg Oxycontin® (30 mg in morning and night) and 6 doses of Percocet® daily as needed before ethanol treatment. The patient's opioid usage history spanned 11 years. The first patient also took Ambien® at night to promote sleep.
The first patient takes nebulized alcohol in the morning and at bedtime (about 3-4 inhalations each time), wakes in the night to use the bathroom, and occasionally takes nebulized alcohol during the night.

[2] = adult, 1-2 inhalations
Description: Example 2: A second patient treatment is of an adult experiencing sinus headaches using nebulized ethanol solution.

[3] = remark: listed apart in the source
Protocol: Example 3: A third patient experienced acute pain from a chronic back injury which occurred during a car accident approximately 40 years earlier. The patient experienced acute pain for about 8 hours, requiring assistance to lower themself to sit in a chair, to stand up from the chair, and to walk about.

Remark: listed apart in the source
[4] = over the course of ethanol treatment
[5] = patient report, result of reduced Oxycontin doses
[6] = patient report, nebulized alcohol morning and bedtime

Ethyl alcohol [nebulized ethanol]
reported levels of pain ([1]; adult male, 11 years of opioid use, over the course of ethanol treatment, about 3-4 inhalations morning and bedtime): significantly lower | Oxycontin usage ([1]; after 6 months of ethanol therapy, 60 mg daily before treatment): 10 mg/day | Percocet usage ([1]; after 6 months of ethanol therapy, 6 doses daily as needed before treatment): no Percocet® during the day | opioid usage [1, 4]: reduced | physical stamina, physical performance (kidney and bowel function), and mental acuity [1, 4]: improved | alertness, attention, and mental acuity [1, 5]: increased | bowel function [1, 5]: increased bowel function | mobility [1, 5]: greater mobility (able to resume dance activities) | posture [1, 5]: improved posture (able to hold head in a vertical position) | renal function [1, 5]: increased renal function (no more water retention/bloating) | quality of sleep [1, 6]: increased | usage of sleep aids to counteract discomfort and pain from injuries [1, 6]: reduced | rate of achieving pain relief compared with other treatments (sinus rinse, other pain medications) [2]: significantly faster | pain relief after repeated treatment ([3]; 4 inhalations per treatment): complete relief | pain relief after initial session ([3]; 5 inhalations per treatment): complete pain relief | time until pain recurred after the initial session ([3]; 5 inhalations per treatment): approximately 12 hours | time to complete remission of pain ([3]; in vivo): 48 h | time to remission relative to time with other analgesics prior to ethanol therapy ([3]; in vivo): approximately 50% | duration of brain effects (euphoria, and so forth) (persons in the absence of significant pain): about 2 hours | reported feeling (side effects) (persons who take nebulized alcohol for pain): moderate sleepiness or drowsiness, but not “buzzed” or “intoxicated”

Source: patent publication US11529311B2, “Method of using nebulized alcohol for analgesia” (BN Intellectual Properties, Inc., priority 2021, dated 2022)
